Test results published in paper PMC4129439 (eLife, 2014).
“And” between values parts separate entries of the source, which are not always exact repeats. Equal entries are not always repeated. Where two headings read alike, the source gives them in different places.

Tests used:
hSAA1, mSAA1, and mSAA3 = experiment: Cholesterol competition of retinol binding to SAAs; conditions: 10 μM cholesterol, saturating retinol, fluorescence quenching at 334 nm
Text: Figure 2. […] Plots are representative of five independent experiments. (C) Retinoic acid lacks intrinsic fluorescence, but can quench intrinsic protein fluorescence due to energy transfer from tryptophan residues ([Cogan et al., 1976]). All-trans-retinoic acid was titrated into mSAA3 and fluorescence quenching was monitored following excitation at 296 nm. The chemical structure of retinoic acid is shown. (D) All-trans-retinoic acid was titrated into hSAA1, mSAA1, mSAA3, hTfr, and ApoA1. Fluorescence emission was monitored at 334 nm with excitation at 296 nm as in (C). Plots are representative of three independent experiments. […] Additional ligand binding measurements are provided in Figure 2—figure supplements 1 and 2. DOI: http://dx.doi.org/10.7554/eLife.03206.007 Figure 2—figure supplement 1. […] DOI: http://dx.doi.org/10.7554/eLife.03206.008 [drawing 3] Figure 2—figure supplement 2. Additional ligand binding studies on human and mouse SAAs. […] Plots are representative of three independent experiments.
Steady state fluorescence was measured using a QuantaMaster 40 spectrofluorometer (Photon Technology International, Edison, NJ) and FelixGX software program. […] For retinoic acid and other retinoids, samples were excited at 296 nm and tryptophan quenching was monitored by emission at 334 nm. […]

mouse SAA3 (mSAA3) = molecular target: T1, mouse SAA3 (mSAA3) (Mus musculus, UniProt P04918); experiment: Fluorometric retinoid binding assay, mSAA3
T1 construct: hexa-histidine tag followed by thrombin cleavage site (N, cleaved yes); made in house; host or cells: Escherichia coli BL21-CodonPlus (DE3)-RILP
T1 sequence (P04918 19-122): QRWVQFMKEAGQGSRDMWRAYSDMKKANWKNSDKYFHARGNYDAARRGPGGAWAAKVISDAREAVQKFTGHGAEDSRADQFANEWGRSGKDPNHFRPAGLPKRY
Description: (§1) Retinoic acid lacks intrinsic fluorescence but can quench inherent protein fluorescence due to energy transfer from tryptophan residues ([Cogan et al., 1976]). We therefore measured retinoic acid binding using a modified fluorescence assay that monitored quenching of protein fluorescence (Figure 2C).
(§2) Steady state fluorescence was measured using a QuantaMaster 40 spectrofluorometer (Photon Technology International, Edison, NJ) and FelixGX software program. […] For retinoic acid and other retinoids, samples were excited at 296 nm and tryptophan quenching was monitored by emission at 334 nm. Experiments on mSAA1 and mSAA3 were done in 25 mM Tris pH 8.0, 100 mM NaCl, and 4 mM decyl maltopyranoside (DM). Experiments with hSAA1, human ApoA1, and human transferrin were conducted in PBS. […] All assays were done using a protein concentration of 0.5 μM.

[1] = molecular target: T2, recombinant human SAA1 (hSAA1) (Homo sapiens, UniProt P0DJI8, D78N/H89R); experiment: Fluorometric retinoid binding assay, hSAA1; conditions: for Kd: PBS, 0.5 μM protein
T2 construct: corresponding to human apo-SAA1α except for the presence of an N-terminal methionine; purchased PeproTech (Rocky Hill, NJ)
T2 sequence (P0DJI8 19-122 D78N/H89R): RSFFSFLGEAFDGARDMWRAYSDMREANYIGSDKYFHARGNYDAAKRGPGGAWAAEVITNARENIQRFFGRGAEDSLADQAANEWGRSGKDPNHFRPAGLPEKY
Description: as §1, §2

mouse SAA1 (mSAA1) = molecular target: T3, mouse SAA1 (mSAA1) (Mus musculus, UniProt P05366); experiment: Fluorometric retinoid binding assay, mSAA1; conditions: for binding (in words): tryptophan fluorescence quenching, excitation 296 nm, emission 334 nm
T3 construct: hexa-histidine tag followed by thrombin cleavage site (N, cleaved yes); made in house; host or cells: Escherichia coli BL21-CodonPlus (DE3)-RILP
T3 sequence (P05366 20-122): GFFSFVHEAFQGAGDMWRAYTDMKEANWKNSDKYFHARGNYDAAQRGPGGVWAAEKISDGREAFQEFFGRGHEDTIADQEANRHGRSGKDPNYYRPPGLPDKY
Description: as §1, §2

[2] = molecular target: human retinol binding protein 4 (hRBP4) (Homo sapiens, UniProt P02753); experiment: Fluorescence binding assay, hRBP4; conditions: fluorescence quenching assay as in Figure 2
[3] = system: liver Saa1 and Saa2 expression; experiment: In vivo retinoic acid reconstitution, liver Saa expression by Q-PCR; design: species or system mouse; conditions: vitamin A-depleted mice, intraperitoneal, daily for three days
Text: (§3) Figure 1. SAA expression requires dietary vitamin A. (A) Mice were maintained on a normal (Vit. A+) diet or a vitamin A-deficient (Vit. A−) diet as in Figure 1—figure supplement 1. N = 3–5 mice per condition. (B) Ileal sections were stained with anti-SAA antibody (‘Materials and methods’) and anti-rabbit IgG-Cy3 (red), and counterstained with DAPI (blue). Scale bar = 50 µm. (C) Q-PCR determination of Saa expression levels in livers of mice on a normal or vitamin A-deficient diet. N = 5 mice/condition. (D) Liver sections were stained with anti-SAA antibody and anti-rabbit IgG-Cy3 (red), and counterstained with DAPI (blue). Scale bars = 50 µm. (E and F) Analysis of SAA expression in HepG2 cells. […] SAA expression was determined by Q-PCR. N = 3 independent experiments. Mean ± SEM is plotted. nd, not detected. *p < 0.05; **p < 0.01; ***p < 0.001. p values were determined by two-tailed Student's t test. DOI: http://dx.doi.org/10.7554/eLife.03206.004 Figure 1—figure supplement 1. […] Saa transcript abundance was determined by Q-PCR. […] Saa transcript abundance was determined by Q-PCR. […] Mean ± SEM is plotted. *p < 0.05, **p < 0.01. p values were determined by the Mann–Whitney test in (A) and two-tailed Student's t test in (B). […]

[4] = system: SAA1 and 2 expression in HepG2 cells; experiment: SAA expression in HepG2 cells by Q-PCR; assay type: cell-based, human
Text: as §3

mSAA3-W71A = molecular target: T4, mSAA3-W71A (Mus musculus, UniProt P04918, W71A); experiment: Retinol binding assay, mSAA3-W71A mutant
T4 construct: hexa-histidine tag followed by thrombin cleavage site (N, cleaved yes); made in house; host or cells: Escherichia coli BL21-CodonPlus (DE3)-RILP
T4 sequence (P04918 19-122 W71A): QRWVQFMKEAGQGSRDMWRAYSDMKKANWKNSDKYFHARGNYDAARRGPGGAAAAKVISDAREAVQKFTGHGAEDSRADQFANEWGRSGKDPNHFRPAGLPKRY
Description: The mSAA3-W71A mutant was generated using the QuickChange II site-directed mutagenesis kit (Agilent Technologies, Santa Clara, CA).
as §2

[5] = system: intestinal Saa1 and Saa2 expression; experiment: Saa expression in small intestinal explants by Q-PCR; assay type: cell-based, mouse; conditions: 1 µM retinol in 0.1% DMSO, ileum explants, 6 hr
[6] = molecular target: the molecule itself; experiment: crystal structure; selenomethionyl mSAA3, space group P6(2), two subunits in the asymmetric unit, SAD phasing, 2 Å; 75-80% MPD, 0.1 M sodium acetate pH 4.5, 20°C; quaternary structure by PDBePISA
[7] = tryptophan fluorescence quenching, excitation 296 nm, emission 334 nm, 0.5 μM protein
[8] = tryptophan fluorescence quenching, excitation 296 nm, emission 334 nm

CC(C)CCC[C@@H](C)[C@H]1CC[C@H]2[C@@H]3CC=C4C[C@@H](O)CC[C@]4(C)[C@H]3CC[C@]12C [cholesterol]
competitive inhibition of retinol binding (hSAA1, mSAA1, and mSAA3): unable to competitively inhibit retinol binding

CC1=C(/C=C/C(C)=C/C=C/C(C)=C/C(=O)O)C(C)(C)CCC1 [retinoic acid]
Kd (mouse SAA3 (mSAA3); [7]): 224 nM | Kd [1, 8]: 268 nM | binding (in words) (mouse SAA1 (mSAA1)): weak binding | Kd [2]: 139 ± 40 nM | expression of liver Saa1 and Saa2 [3]: elevated expression | expression of SAA1 and 2 ([4]; 100 nM retinoic acid in the presence of IL-1β and IL-6, retinoid-free medium): enhanced expression

CC1=C(/C=C/C(C)=C/C=C/C(C)=C/CO)C(C)(C)CCC1 [retinol]
Kd (mouse SAA3 (mSAA3)): 145 nM | Kd ([1]; all-trans-retinol titration, retinol fluorescence, excitation 348 nm, emission 460 nm): 259 nM | Kd (mouse SAA1 (mSAA1)): 169 nM | Kd (mSAA3-W71A): 496 ± 127 nM | expression of SAA1 and 2 ([4]; 1 μM retinol in the presence of IL-1β and IL-6, retinoid-free medium): enhanced expression | expression of intestinal Saa1 and Saa2 [5]: elevated expression

CC(=O)OC/C=C(C)/C=C/C=C(C)/C=C/C1=C(C)CCCC1(C)C [retinyl acetate]
Kd [1, 8]: 497 nM and 347 nM | binding (in words) (mouse SAA1 (mSAA1)): weak binding

CCCCCCCCCCCCCCCC(=O)OC/C=C(C)/C=C/C=C(C)/C=C/C1=C(C)CCCC1(C)C [retinyl palmitate]
binding (in words) (mouse SAA3 (mSAA3); [8]): bound weakly | binding (in words) [1, 8]: bound weakly | binding (in words) (mouse SAA1 (mSAA1)): bound weakly

CC1=C(/C=C/C(C)=C/C=C/C(C)=C/C=C/C=C(C)/C=C/C=C(C)/C=C/C2=C(C)CCCC2(C)C)C(C)(C)CCC1 [β-carotene]
Kd (mouse SAA3 (mSAA3); [7]): 159 nM | Kd [1, 8]: 347 nM and 497 nM | binding (in words) (mouse SAA1 (mSAA1)): weak binding

B1: mouse serum amyloid A3 (mSAA3) (natural protein, UniProt P04918 19-122, looked up)
chain: QRWVQFMKEAGQGSRDMWRAYSDMKKANWKNSDKYFHARGNYDAARRGPGGAWAAKVISDAREAVQKFTGHGAEDSRADQFANEWGRSGKDPNHFRPAGLPKRY
notes: cloned into pET28(a)+ between NdeI and BamHI; monomer is 12.2 kDa; The crystal used for the structure was selenomethionyl-derivatised (grown in defined media with selenomethionine); SEC and cross-linking used the native protein; A few vector residues probably remain at the N-terminus after thrombin cleavage (surmise); also called mouse SAA3; not shown: His6, N-terminal, cleaved
stoichiometry N [6]: 4
